In patent US12643910B2, “Substituted pyrazolo[3,4-b]pyridines as ectonucleotide pyrophosphatase/phosphodiesterase 1 (ENPP1) modulators” (SANFORD BURNHAM PREBYS MEDICAL DISCOVERY INSTITUTE, priority 2019, dated 2026) one finds IC50 data, which are given here for 23 molecules.

One test addresses T1, human ENPP1 (Homo sapiens, UniProt P22413).
T1 construct: made in house
T1 sequence (P22413 1-925): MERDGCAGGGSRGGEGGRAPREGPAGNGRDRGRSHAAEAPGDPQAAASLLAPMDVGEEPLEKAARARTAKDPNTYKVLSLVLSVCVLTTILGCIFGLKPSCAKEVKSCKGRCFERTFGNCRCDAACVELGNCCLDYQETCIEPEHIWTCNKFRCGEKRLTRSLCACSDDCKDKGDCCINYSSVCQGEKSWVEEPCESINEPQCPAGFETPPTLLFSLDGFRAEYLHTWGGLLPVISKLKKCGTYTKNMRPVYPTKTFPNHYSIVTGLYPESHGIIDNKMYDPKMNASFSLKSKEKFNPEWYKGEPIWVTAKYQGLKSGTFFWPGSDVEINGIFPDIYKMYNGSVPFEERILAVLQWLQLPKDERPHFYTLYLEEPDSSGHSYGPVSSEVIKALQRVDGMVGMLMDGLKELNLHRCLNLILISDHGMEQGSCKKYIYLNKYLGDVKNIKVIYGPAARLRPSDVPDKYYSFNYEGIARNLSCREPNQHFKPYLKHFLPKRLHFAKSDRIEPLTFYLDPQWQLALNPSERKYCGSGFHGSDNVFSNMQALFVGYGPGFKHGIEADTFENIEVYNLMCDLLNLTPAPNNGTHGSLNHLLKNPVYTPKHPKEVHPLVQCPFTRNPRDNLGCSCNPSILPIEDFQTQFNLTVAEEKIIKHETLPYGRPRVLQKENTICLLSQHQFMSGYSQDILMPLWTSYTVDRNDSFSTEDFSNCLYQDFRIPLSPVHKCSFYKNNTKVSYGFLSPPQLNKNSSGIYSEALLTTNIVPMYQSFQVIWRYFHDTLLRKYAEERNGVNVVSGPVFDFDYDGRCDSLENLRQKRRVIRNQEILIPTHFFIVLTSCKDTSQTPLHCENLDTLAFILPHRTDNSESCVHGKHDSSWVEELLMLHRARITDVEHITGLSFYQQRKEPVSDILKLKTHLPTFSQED
Description: ENPP1 assay with ATP substrate (Transcreener AMP2/GMP2 TR-FRET). Type of test: biochemical. The following applies: 1 hour at room temperature. An outline of the steps:
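5′-AMP from ATP hydrolysis (300 nM ATP stock added; enzyme added as 8.5 μM stock) detected by competitive TR-FRET. Buffer: 50 mM Tris pH 7.5, 1 mM TCEP, 2 mM MgCl2, 0.005% Tween 20, 1% DMSO. Reaction 1 h at room temperature, EDTA stop. IC50 from 2-parameter variable-slope fit.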
(TR-FRET usually uses a lanthanide donor and a delayed reading to cut background.)

The target of a further test is T2, ENPP3 (Homo sapiens, UniProt O14638).
T2 sequence (O14638 1-875): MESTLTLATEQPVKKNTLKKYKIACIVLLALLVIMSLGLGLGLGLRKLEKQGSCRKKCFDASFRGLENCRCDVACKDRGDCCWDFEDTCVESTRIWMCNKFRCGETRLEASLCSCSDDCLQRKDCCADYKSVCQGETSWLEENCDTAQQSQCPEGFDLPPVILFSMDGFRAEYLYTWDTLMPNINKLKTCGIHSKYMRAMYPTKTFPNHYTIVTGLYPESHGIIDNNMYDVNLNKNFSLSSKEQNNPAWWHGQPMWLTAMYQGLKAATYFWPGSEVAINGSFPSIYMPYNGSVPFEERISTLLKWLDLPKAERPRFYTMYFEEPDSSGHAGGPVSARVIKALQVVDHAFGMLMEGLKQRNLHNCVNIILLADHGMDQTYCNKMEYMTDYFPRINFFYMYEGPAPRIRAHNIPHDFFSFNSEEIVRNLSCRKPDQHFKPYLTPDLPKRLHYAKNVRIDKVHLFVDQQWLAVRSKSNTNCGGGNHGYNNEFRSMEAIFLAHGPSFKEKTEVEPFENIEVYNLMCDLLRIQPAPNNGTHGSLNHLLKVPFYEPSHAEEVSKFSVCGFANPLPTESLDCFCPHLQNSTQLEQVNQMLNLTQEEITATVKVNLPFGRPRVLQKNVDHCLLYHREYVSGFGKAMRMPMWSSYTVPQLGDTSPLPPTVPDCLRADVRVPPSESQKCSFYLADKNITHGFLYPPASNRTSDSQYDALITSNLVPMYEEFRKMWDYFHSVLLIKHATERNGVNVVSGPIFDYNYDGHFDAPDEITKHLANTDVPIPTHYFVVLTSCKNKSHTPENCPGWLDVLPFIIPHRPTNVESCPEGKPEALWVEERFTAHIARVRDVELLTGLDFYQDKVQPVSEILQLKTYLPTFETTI
Kind of test: ENPP3 Km ATP assay. Type of test: biochemical. The following applies: ATP at Km.

Molecules are shown by their SMILES.

One may read the IC50 as the concentration needed to halve the response being measured. Consider `Cn1ncc2ncnc(NCc3ccc(S(N)(=O)=O)cc3)c21` [Example 2.54, 4-[(1-Methyl-1H-pyrazolo[4,3-d]pyrimidin-7-ylamino)-methyl]-benzenesulfonamide], for which the 50% inhibitory concentration (IC50) against human ENPP1 was less than 0.1 µM; against ENPP3, 1 to 20 µM.
With `CN(C)CCCNc1nc(NCc2ccc(S(N)(=O)=O)cc2)c2c(-c3ccccc3)csc2n1` [Example 1.59, 4-((2-(3-Dimethylaminopropyl)amino-5-phenylthieno[2,3-d]pyrimidin-4-yl)aminomethyl)-benzenesulfonamide], the IC50 at human ENPP1 and against ENPP3 was less than 0.1 µM each time.
As to `Cc1csc2c(N3CCC(NCCCc4ccccc4F)CC3)ncnc12` [Example 3.33, N-(3-(2-Fluorophenyl)propyl)-1-(7-methylthieno[3,2-d]pyrimidin-4-yl)piperidin-4-amine], the IC50 was 0.1 to 1 µM against human ENPP1 and greater than 20 µM against ENPP3.
`Cn1ncc2c(NCc3ccc(S(N)(=O)=O)cc3)nc(-c3ccccn3)nc21` [Example 2.10, 4-(((1-Methyl-6-(pyridin-2-yl)-1H-pyrazolo[3,4-d]pyrimidin-4-yl)amino)methyl)-benzenesulfonamide]: the half-inhibitory concentration (IC50) was less than 0.1 µM on human ENPP1 and 1 to 20 µM on ENPP3.
`CCN(CCO)c1nc(NCc2ccc(S(N)(=O)=O)cc2)c2c(-c3ccccc3)csc2n1` [Example 1.52, 4-((2-(N-Ethyl-N-(2-hydroxyethyl)amino)-5-phenylthieno[2,3-d]pyrimidin-4-yl)aminomethyl)-benzenesulfonamide]: the IC50 was less than 0.1 µM on human ENPP1 and 0.1 to 1 µM on ENPP3.
As for `Cc1csc2c(N3CCC(NCCCc4ccncc4)CC3)ncnc12` [Example 3.1, 1-(7-Methylthieno[3,2-d]pyrimidin-4-yl)-N-(3-(pyridin-4-yl)propyl)piperidin-4-amine], the IC50 is 0.1 to 1 µM at human ENPP1 and greater than 20 µM at ENPP3.
On the same counts, the results for `CCSc1nc(NCc2ccc(S(N)(=O)=O)cc2)c2cnn(C)c2n1` [Example 2.108, 4-((6-(Ethylsulfanyl)-1-methyl-1H-pyrazolo[3,4-d]pyrimidin-4-yl)aminomethyl)-benzenesulfonamide] are less than 0.1 µM and less than 0.1 µM.
In the same order, the values of `Cc1cnccc1CCC(=O)NC1CCN(c2ncnc3c(C)csc23)CC1` [Example 3.34, 3-(3-Methylpyridin-4-yl)-N-(1-(7-methylthieno[3,2-d]pyrimidin-4-yl)piperidin-4-yl)propanamide] are greater than 20 µM and greater than 20 µM.
As for `COc1cc(S(N)(=O)=O)ccc1CNc1ccnc2c1cnn2C` [Example 2.63, 3-Methoxy-4-(((1-methyl-1H-pyrazolo[3,4-b]pyridin-4-yl)amino)methyl)benzenesulfonamide], the IC50 against human ENPP1 was 0.1 to 1 µM; against ENPP3 it was 1 to 20 µM.
In the same order, the values of `NS(=O)(=O)c1ccc(CNc2nc(-c3ccccn3)nc3scc(-c4ccccc4)c23)cc1C(F)(F)F` [Example 1.14, 4-(((5-Phenyl-2-(pyridin-2-yl)thieno[2,3-d]pyrimidin-4-yl)amino)methyl)-2-(trifluoromethyl)benzenesulfonamide] are less than 0.1 µM and 0.1 to 1 µM.
In the same order, the values of `COc1nc(NCc2ccc(S(N)(=O)=O)cc2)c2cnn(C)c2n1` [Example 2.94, 4-((6-Methoxy-1-methyl-1H-pyrazolo[3,4-d]pyrimidin-4-yl)aminomethyl)-benzenesulfonamide] are less than 0.1 µM and 0.1 to 1 µM.
In the same order, the values of `CCNc1nc(NCc2ccc(S(N)(=O)=O)cc2F)c2cnn(C)c2n1` [Example 2.141, 4-(((6-(Ethylamino)-1-methyl-1H-pyrazolo[3,4-d]pyrimidin-4-yl)amino)methyl)-3-fluorobenzenesulfonamide] are 0.1 to 1 µM and 0.1 to 1 µM.
As for `Cc1csc2c(N3CCC(NCCCc4ccc(F)cc4)CC3)ncnc12` [Example 3.5, N-(3-(4-Fluorophenyl)propyl)-1-(7-methylthieno[3,2-d]pyrimidin-4-yl)piperidin-4-amine], the IC50 on human ENPP1 is 0.1 to 1 µM; against ENPP3 it was greater than 20 µM.
Consider `Cn1ncc2c(N3CCC(NCCCc4ccc(F)cc4)CC3)ncnc21` [Example 3.50, N-(3-(4-Fluorophenyl)propyl)-1-(1-methyl-1H-pyrazolo[3,4-d]pyrimidin-4-yl)piperidin-4-amine], for which the IC50 on human ENPP1 and at ENPP3 was greater than 20 µM each time.
For the molecule `CC(C)Nc1cc(NCc2ccc(S(N)(=O)=O)cc2)c2cnn(C)c2n1` [Example 2.74, 4-(((6-(Isopropylamino)-1-methyl-1H-pyrazolo[3,4-b]pyridin-4-yl)amino)methyl)benzenesulfonamide], the IC50 against human ENPP1 and against ENPP3 was 1 to 20 µM each time.
Take `c1ccc(-c2csc3nc(-c4ccccn4)nc(NCc4cccnc4)c23)cc1` [Example 1.1, 5-Phenyl-2-(pyridin-2-yl)-N-(pyridin-3-ylmethyl)thieno[2,3-d]pyrimidin-4-amine]: the IC50 is 1 to 20 µM on human ENPP1 and greater than 20 µM against ENPP3.
In the same order, the values of `COCCN(C)c1nc(NCc2ccc(S(N)(=O)=O)cc2)c2c(-c3ccccc3)csc2n1` [Example 1.55, 4-((2-(N-Methyl-N-(2-methoxyethyl)amino)-5-phenylthieno[2,3-d]pyrimidin-4-yl)aminomethyl)benzenesulfonamide] are less than 0.1 µM and 0.1 to 1 µM.
On the same counts, the results for `NS(=O)(=O)N1CCC(CNc2nc(-c3ccccn3)nc3scc(-c4ccccc4)c23)CC1` [Example 1.67, 4-((5-Phenyl-2-(2-pyridyl)thieno[2,3-d]pyrimidin-4-yl)aminomethyl)-1-piperidinesulfonamide] are 0.1 to 1 µM and 1 to 20 µM.
With `Cn1ncc2c(NCc3ccc(S(N)(=O)=O)cc3F)ccnc21` [Example 2.64, 3-Fluoro-4-(((1-methyl-1H-pyrazolo[3,4-b]pyridin-4-yl)amino)methyl)benzenesulfonamide], the IC50 is less than 0.1 µM against human ENPP1 and 0.1 to 1 µM on ENPP3.
On to `Cc1nn(C)c2ncnc(NCc3ccc(S(N)(=O)=O)cc3)c12` [Example 2.45, 4-(((1,3-Dimethyl-1H-pyrazolo[3,4-d]pyrimidin-4-yl)amino)methyl)benzenesulfonamide], for which the IC50 against human ENPP1 and on ENPP3 was 0.1 to 1 µM throughout.
Take `CN1CCN(c2nc(N3CCC(NCCCc4ccncc4)CC3)c3cnn(C)c3n2)CC1` [Example 2.6, 1-(1-Methyl-6-(4-methylpiperazin-1-yl)-1H-pyrazolo[3,4-d]pyrimidin-4-yl)-N-(3-(pyridin-4-yl)propyl)piperidin-4-amine]: the IC50 against human ENPP1 and on ENPP3 was greater than 20 µM throughout.
For the molecule `N#Cc1ccc(CNc2nc(-c3ccccn3)nc3scc(-c4ccccc4)c23)cc1` [Example 1.11, 4-[(5-Phenyl-2-pyridin-2-yl-thieno[2,3-d]pyrimidin-4-ylamino)-methyl]-benzonitrile], the IC50 against human ENPP1 and on ENPP3 was greater than 20 µM in each case.
Take `Cn1cnc2c(NCc3ccc(S(N)(=O)=O)cc3)ncnc21` [Example 2.8, 4-(((9-Methyl-9H-purin-6-yl)amino)methyl)benzenesulfonamide]: the IC50 against human ENPP1 is greater than 20 µM; against ENPP3, 1 to 20 µM.
